# Source: patent US10472341B2, “Bicyclic tetrahydrothiazepine derivatives useful for the treatment of neoplastic and/or infectious diseases” (APEIRON BIOLOGICS AG, priority 2015, dated 2019)
# What was measured:
# CD8 T cells = assay: CD8 T cell viability (number of living cells) with or without M21 cells; assay type: cell-based, human
# Method: (§1) Isolated PBMCs, NK cells or CD8 positive cells were plated in Xvivo medium at 1.5*10^5 cells per in 96 well culture plates in the presence of 0.3*10^4 tumor cells where indicated. Cytokine secretion was determined by ELISA, immune cell activation (using Beckman-Coulter Abs CD25-PC5, CD69-PC7), cell viability and numbers by flow cytometry (Beckman-Coulter FC500 or Gallios) using 7-AAD exclusion as criterion for living cells. CD8-positive immune cells were isolated from PBMCs and were incubated with and without compound example 67, either alone or in co-culture with M21 melanoma cells.
# [1] = test system: CD8-positive immune cells & M21 melanoma cells; assay: CD8-positive immune cells alone or in co-culture with M21 melanoma cells: IFN-gamma, IL-2, granzyme; assay type: cell-based, human
# Method: as §1
# M21 melanoma cells = assay: M21 viability (number of living cells) with or without CD8 cells; assay type: cell-based, human
# Method: as §1
# OT-II cells = assay: OT-II transfer model, intravenous administration; assay type: in vivo, mouse; conditions: LPS & OVA
# Method: • Single cell suspension of splenocytes was prepared from the spleen by rinsing cells through a sterile 70 μm filter with PBS • Cells were collected by centrifugation in an 15 ml tube, the cell pellet was resuspended in 1 ml of Erylyse buffer and incubated at room temperature for 5 minutes, tubes were filled up with PBS and cells were washed twice • Cells were counted and resuspended in the desired buffer volume for MACS-enrichment or flow cytometric analysis Isolation of CD4 T Cells from OT-II Transgenic Mice • Splenocytes were resuspended in MACS buffer ([…] MACS-buffer/10^7 cells) • CD4 T cells were isolated using the CD4 T cell isolation kit (Miltenyi) with LS-columns following manufacturer's recommendations CFSE-Labeling of T Cells • Cells were resuspended in PBS with 0.1% BSA at 1×10^7 cells/ml and CFSE-solution was added to final concentration of 2.5 μM CFSE • Incubated for 10 min at 37° C., swung each 2 min • Same volume of FCS added and incubated for 5 min at room temperature • Cells were washed twice with RMPI-10% FCS medium • Cells were counted and resuspended in PBS or medium at desired concentration OT-II Transfer • Day 0: OT-II cells were transferred in PBS (3*10^6. Cells in 100 μl PBS) by retro-orbital injection • Day 1: WT mice got OVA vaccinated (subcut. flank, 10 μg LPS, 2 μg OVA per animal) • 2 & 4 h later compounds were administrated; for oral dosing compound was used as suspension (0.5% methylcellulose in water), for i.v. dosing compound was solubilized in DMSO and diluted with PBS • Day 2: compounds were administrated twice in the morning (with 2 h time interval) • Day 3: Mice were sacrificed & splenocytes were isolated • T cell proliferation & phenotype was determined by flow cytometry • Flow cytometry-Staining (all Abs purchased from eBioscience and used as recommended by the manufacturer): B220-eF450, CD4-PE, CD25PerCPCy5.5, CD69-PC7, TCRVa2-APC, CD8-AF700, CD3-eF780; CFSE; 7-AAD • Acquisition on Beckman-Coulter Gallios, Analysis using Kaluza Software OT-I Transfer to Mice with B16-F10-OVA Tumors • Day 0: 100000 B16-F10-OVA tumor cells were inoculated subcutaneously at the flank of WT-mice • Day 7: OT-I cells were transferred in PBS (3*10^6. […]
# [2] = 0.03 μM, CD8 only (no tumor cells)
# [3] = 0.10 μM, CD8 only (no tumor cells)
# [4] = 0.30 μM, CD8 only (no tumor cells)
# [5] = 1 μM, CD8 only (no tumor cells)
# [6] = 3 μM, CD8 only (no tumor cells)
# [7] = 10 μM, CD8 only (no tumor cells)
smiles,measurement,setting,value
"CCCCNC(=O)c1ccc2c(c1)N(Cc1ccc(OC(F)(F)F)cc1)C(=O)[C@@H](N)CS2(=O)=O.Cl [Example 67, (3R)-3-amino-N-butyl-1,1,4-trioxo-5-{[4-(trifluoromethoxy)phenyl]methyl}-2,3,4,5-tetrahydro-1λ^6,5-benzothiazepine-7-carboxamide hydrochloride]",CD8 T cell viability [Number of Living Cells] average,"CD8 T cells; 0.03 μM, CD8 cells & M21",22933.00 Number of Living Cells
same,CD8 T cell viability [Number of Living Cells] average,"CD8 T cells; 0.03 μM, CD8 only",23523.00 Number of Living Cells
same,CD8 T cell viability [Number of Living Cells] average,"CD8 T cells; 0.1 μM, CD8 cells & M21",23942.33 Number of Living Cells
same,CD8 T cell viability [Number of Living Cells] average,"CD8 T cells; 0.1 μM, CD8 only",24094.33 Number of Living Cells
same,CD8 T cell viability [Number of Living Cells] average,"CD8 T cells; 0.3 μM, CD8 cells & M21",23944.67 Number of Living Cells
same,CD8 T cell viability [Number of Living Cells] average,"CD8 T cells; 0.3 μM, CD8 only",23739.00 Number of Living Cells
same,CD8 T cell viability [Number of Living Cells] average,"CD8 T cells; 1 μM, CD8 cells & M21",24569.67 Number of Living Cells
same,CD8 T cell viability [Number of Living Cells] average,"CD8 T cells; 1 μM, CD8 only",23066.67 Number of Living Cells
same,CD8 T cell viability [Number of Living Cells] average,"CD8 T cells; 3 μM, CD8 cells & M21",24633.67 Number of Living Cells
same,CD8 T cell viability [Number of Living Cells] average,"CD8 T cells; 3 μM, CD8 only",23975.33 Number of Living Cells
same,CD8 T cell viability [Number of Living Cells] average,"CD8 T cells; 10 μM, CD8 cells & M21",24006.33 Number of Living Cells
same,CD8 T cell viability [Number of Living Cells] average,"CD8 T cells; 10 μM, CD8 only",25522.67 Number of Living Cells
same,number of CD8 T cells; number of tumor cells in the absence of CD8 T cells,CD8 T cells; CD8 / M21 cultures,neither the number of CD8 T cells nor the number of tumor cells in the absence of CD8 T cells was substantially modulated
same,Granzyme [ng/ml] avg,"[1]; 0.03 μM, CD8 cells & M21",0.10 ng/mL
same,IFN-gamma [ng/ml] avg,"[1]; 0.03 μM, CD8 cells & M21",0.06 ng/mL
same,IL-2 [ng/ml] avg,"[1]; 0.03 μM, CD8 cells & M21",1.32 ng/mL
same,Granzyme [ng/ml] avg,[1]; [2],0.01 ng/mL
same,IFN-gamma [ng/ml] avg,[1]; [2],Below
same,IL-2 [ng/ml] avg,[1]; [2],Below
same,Granzyme [ng/ml] avg,"[1]; 0.10 μM, CD8 cells & M21",0.12 ng/mL
same,IFN-gamma [ng/ml] avg,"[1]; 0.10 μM, CD8 cells & M21",0.15 ng/mL
same,IL-2 [ng/ml] avg,"[1]; 0.10 μM, CD8 cells & M21",2.13 ng/mL
same,Granzyme [ng/ml] avg,[1]; [3],0.01 ng/mL
same,IFN-gamma [ng/ml] avg,[1]; [3],Below
same,IL-2 [ng/ml] avg,[1]; [3],Below
same,Granzyme [ng/ml] avg,"[1]; 0.30 μM, CD8 cells & M21",0.18 ng/mL
same,IFN-gamma [ng/ml] avg,"[1]; 0.30 μM, CD8 cells & M21",0.20 ng/mL
same,IL-2 [ng/ml] avg,"[1]; 0.30 μM, CD8 cells & M21",2.75 ng/mL
same,Granzyme [ng/ml] avg,[1]; [4],0.01 ng/mL
same,IFN-gamma [ng/ml] avg,[1]; [4],Below
same,IL-2 [ng/ml] avg,[1]; [4],Below
same,Granzyme [ng/ml] avg,"[1]; 1 μM, CD8 cells & M21",0.34 ng/mL
same,IFN-gamma [ng/ml] avg,"[1]; 1 μM, CD8 cells & M21",0.40 ng/mL
same,IL-2 [ng/ml] avg,"[1]; 1 μM, CD8 cells & M21",3.38 ng/mL
same,Granzyme [ng/ml] avg,[1]; [5],0.02 ng/mL
same,IFN-gamma [ng/ml] avg,[1]; [5],Below
same,IL-2 [ng/ml] avg,[1]; [5],Below
same,Granzyme [ng/ml] avg,"[1]; 3 μM, CD8 cells & M21",0.43 ng/mL
same,IFN-gamma [ng/ml] avg,"[1]; 3 μM, CD8 cells & M21",0.54 ng/mL
same,IL-2 [ng/ml] avg,"[1]; 3 μM, CD8 cells & M21",3.44 ng/mL
same,Granzyme [ng/ml] avg,[1]; [6],0.01 ng/mL
same,IFN-gamma [ng/ml] avg,[1]; [6],Below
same,IL-2 [ng/ml] avg,[1]; [6],Below
same,Granzyme [ng/ml] avg,"[1]; 10 μM, CD8 cells & M21",0.37 ng/mL
same,IFN-gamma [ng/ml] avg,"[1]; 10 μM, CD8 cells & M21",0.68 ng/mL
same,IL-2 [ng/ml] avg,"[1]; 10 μM, CD8 cells & M21",3.26 ng/mL
same,Granzyme [ng/ml] avg,[1]; [7],0.02 ng/mL
same,IFN-gamma [ng/ml] avg,[1]; [7],Below
same,IL-2 [ng/ml] avg,[1]; [7],Below
same,tumor-cell contact mediated release of granzyme,[1]; CD8-positive immune cells in co-culture with M21,enhanced
same,production of IL-2 and IFN-gamma,[1]; CD8-positive immune cells in co-culture with M21 melanoma cells,enhanced production of both cytokines specifically upon tumor cell contact
same,enhancement of IL-2 and IFN-gamma production,[1]; CD8-positive immune cells in the absence of tumor cells,such effect was not detected in the absence of tumor cells
same,M21 Viability [Number of Living Cells] average,"M21 melanoma cells; 0.03 μM, CD8 cells & M21",13077.00 Number of Living Cells
same,M21 Viability [Number of Living Cells] average,"M21 melanoma cells; 0.1 μM, CD8 cells & M21",11586.67 Number of Living Cells
same,M21 Viability [Number of Living Cells] average,"M21 melanoma cells; 0.3 μM, CD8 cells & M21",9525.67 Number of Living Cells
same,M21 Viability [Number of Living Cells] average,"M21 melanoma cells; 1 μM, CD8 cells & M21",3916.67 Number of Living Cells
same,M21 Viability [Number of Living Cells] average,"M21 melanoma cells; 3 μM, CD8 cells & M21",3604.00 Number of Living Cells
same,M21 Viability [Number of Living Cells] average,"M21 melanoma cells; 10 μM, CD8 cells & M21",3448.67 Number of Living Cells
same,M21 Viability [Number of Living Cells] average,"M21 melanoma cells; 10 μM, M21 only (no CD8 cells)",18139 Number of Living Cells
same,viable tumor cells,M21 melanoma cells; immune cell cocultures with M21 tumor cells,strong reduction in viable tumor cells
"Cl.N[C@H]1CS(=O)(=O)c2cc(F)c(C(=O)NCCCC(F)(F)F)cc2N(Cc2ccc(Cl)cc2)C1=O [Example 70, (3R)-3-amino-5-[(4-chlorophenyl)methyl]-8-fluoro-1,1,4-trioxo-N-(4,4,4-trifluoro-butyl)-2,3,4,5-tetrahydro-1λ^6,5-benzothiazepine-7-carboxamide hydrochloride]","Proliferated OT-II cells, average",OT-II cells; 1 mg/kg,18.70 % gated
same,"CD69+ cells, B cells of recipient animal",OT-II cells; 10 mg/kg,8.62 % gated
same,"CD69+ cells, CD8 T cells of recipient animal",OT-II cells; 10 mg/kg,7.08 % gated
same,"CD69+ cells, WT CD4 T cells of recipient animal",OT-II cells; 10 mg/kg,12.26 % gated
same,"CD69+ cells, transferred OT-II cells",OT-II cells; 10 mg/kg,59.47 % gated
